According to PMC8746705, “Comparison of Experimental Strategies to Study L-Type Amino Acid Transporter 1 (LAT1) Utilization by Ligands” (Molecules, 2021):
Each block holds one compound with its values, some of them ahead of it.

How the values were obtained:
[1] = tested on: immortalized mouse microglia (BV2 cells); experiment: Cellular viability (resazurin / Alamar blue); type: cell-based; settings: 72 h
Experimental: Immortalized microglia (BV2 cells) were seeded at the density of 10 × 10^3 cells/well onto collagen-coated 96-well plates. The cells were used for the proliferation experiments one day after seeding. The studied compounds (50 and 100 µM) were added into the growth medium and incubated for 3 days (the medium was replaced with a fresh one with studied compounds after daily measurements). Each day the cell viability was determined by the resazurin cell proliferation kit (MilliporeSigma, St. Louis, MO, USA), which is directly proportional to aerobic respiration and cellular metabolism of cells. The samples were measured fluorometrically by monitoring the increase in fluorescence at λex 560 nm and λem 590 nm with the Envision plate reader (EnVision, Perkin Elmer, Inc., Waltham, MA, USA). The cell viability was also followed by visualizing the wells with microscopy. The ability of compounds to inhibit the viability of the cells was expressed as percentages (%) compared to the untreated controls.

[2] = tested on: brain amino acids L-Leu, L-Trp, L-Tyr and L-Tyr metabolites; experiment: Brain amino acid homeostasis after i.p. dose to mice; type: in vivo; settings: mouse brain, single i.p. dose 25 µmol/kg; for Brain 3,4-dihydroxyphenylacetic acid levels: compound 2: 2 and 4 h compared to first time point (10 min)
Experimental: Adult male mice weighing 25 ± 5 g were supplied by Envigo (Venray, Netherlands). Mice were housed in stainless steel cages on a 12 h light (07:00–19:00) and 12 h dark (19:00–07:00) cycle at an ambient temperature of 22 ± 1 °C with a relative humidity of 50–60%. All experiments were carried out during the light phase. Tap water and food pellets (Lactamin R36; Lactamin AB, Södertälje, Sweden) were available ad libitum. A dose of 25 µmol/kg of compound 1, 2, or 8–11 was given as a bolus injection (i.p.) to mice. The mice were decapitated at selected time points between (10–360 min) and brain tissues were collected for sample preparation to be analyzed by liquid chromatography-mass spectrometric (LC-MS/MS) analysis.
Brain samples were prepared similarly as described above by homogenizing the pre-weigh tissues with ultrapure water (1:3). Subsequently, 100 µL of the homogenates was taken, and the proteins were precipitated with 300 µL of ACN containing the internal standard (labetalol).
Samples were vortexed and centrifuged at 10,000× g at 4 °C for 10 min. 200 µL of supernatant was mixed with 100 µL of ultrapure water and injected to LC-MS/MS equipment described above. The amounts of three known LAT1-utilizing amino acids, L-Leu, L-Tyr, and L-Trp, and two L-Tyr metabolites, namely p-hydroxyphenylacetate and 3,4-dihydroxyphenylacetic acid, were quantified with a method described earlier. […] Data were acquired using the Agilent MassHunter Workstation Acquisition software (Data Acquisition for Triple Quadrupole Mass Spectrometer, version B.03.01) and processed and analyzed with Quantitative Analysis (B.04.00) software. The lower limit of quantification (LLOQ) for the amino acids in tissue samples was 0.1 nM for L-Leu, L-Tyr, and L-Trp and 1 nM for p-hydroxyphenylacetate and 3,4-dihydroxyphenylacetic acid. […] The concentrations of the amino acids and their metabolites were calculated from the standard curve that was prepared by spiking known amounts of compounds to ACN including the selected internal standard.

[3] = tested on: LAT1; experiment: Quantitative expression of LAT1 on the BV2 plasma membrane (LC-MS proteomics); type: cell-based, mouse; settings: BV2 cells incubated 24 h; normalized to Na+/K+ATPase; compared to untreated control
Experimental: The protein expression levels of LAT1, in the plasma membrane fractions of BV2 cells were quantified using multiplexed MRM analysis according to the protocol described by Uchida et al.. First, the crude membrane fractions were isolated from three distinct sets of cell culture plates using Membrane Protein Extraction Kit (BioVision Incorporated, Milpitas, CA, USA) according to the manufacturer’s instructions. The protein content for each fraction was measured by Bio-Rad Protein Assay, based on the Bradford dye-binding method (EnVision, Perkin Elmer, Inc., Waltham, MA, USA). A total amount of 50 µg protein from each fraction was solubilized/denatured in 7 M guanidine hydrochloride, 0.5 M Tris-HCl and 10 mM EDTA-Na. The proteins were then reduced by dithiothreitol (1:50, w/w) and S-carboxymethylated by iodoacetamide (1:20, w/w). The alkylated proteins were precipitated by methanol/chloroform/water (4:1:3) and centrifuged at 18,000× g for 5 min at 4 °C. The pellet was resuspended in 6 M urea and mixed for 10 min at room temperature before the dilution with 0.1 M Tris-HCl (pH 8.5) to a final concentration of 1.2 M urea, and dissolved completely by intermittent sonication (Branson 3510, Danbury, CT, USA). The dissolved proteins were first digested with LysC (1/100, w/w) and 0.05% ProteaseMax (Promega Biotech AB, Nacka, Sweden) for 3 h at room temperature. Then, the samples were spiked with 10 µL (30 fmol) of the labelled peptides for absolute quantification (JPT Peptide Technologies GmbH, Berlin, Germany) (Table S2). The samples were incubated with (1/100, w/w) TPCK-Trypsin (Promega Biotech AB, Nacka, Sweden) for 18 h at 37 °C. The tryptic digestion was then quenched by adding 40 µL of 5% formic acid. The samples were then centrifuged at 18,000× g for 5 min at 4 °C, and the supernatants were transferred to vials for analysis.
The digested peptides were analyzed using an ultra-performance liquid chromatography system coupled with a triple quadrupole mass spectrometer with a heated electrospray ionization source in the positive mode (UPLC 1290 and MSD 6495, Agilent Technologies, Santa Clara, CA, USA). A total amount of 20 µL of the digested peptides (10 µg) was separated using AdvanceBio Peptide Map 2.1 × 250 mm, 2.7 μm column (Agilent Technologies, Santa Clara, CA, USA) and LC eluents of 0.1% formic acid in water (A) and acetonitrile (B). The peptides were eluted following a constant flow rate of 0.3 mL/min and a gradient of 2–7% B for 2 min, followed by 7–30% B for 48 min, 30–45% B for 3 min, and 45–80% B for 2.5 min before re-equilibrating the column again for 4.5 min. LAT1 was quantified based on the ratio between the light and heavy standard peptides, as described previously (Table S2). Data was acquired using Agilent MassHunter Workstation Acquisition (Agilent Technologies, Data Acquisition for Triple Quadrupole, version B.03.01) and processed by using Skyline software (version 20.1). The results were normalized to a housekeeping protein Na+/K+ATPase and expressed as fmol/µg of the total amount of protein in the samples.

[4] = higher concentrations (>100 µM)

Brain p-hydroxyphenylacetate levels ([2]; after 30 min of the bolus injection compared to other time points): significantly lower
Structure (SMILES): NC(Cc1cccc(C(=O)Oc2ccc(-c3ccc(-c4ccc5c(c4)COC5=O)s3)cc2)c1)C(=O)O (stereo not shown) [Compound 1]
Effect on cell viability [1, 4]: started to impact the cell viability

Structure (SMILES): C[C@H](C(=O)Nc1cccc(C[C@H](N)C(=O)O)c1)c1ccc(-c2ccccc2)c(F)c1 [Compound 9]
Effect on cell viability ([1]; 50 µM): minor effects on cell viability
LAT1 expression on the plasma membrane [3]: did not have any effect on LAT1 expression

Brain 3,4-dihydroxyphenylacetic acid levels [2]: significant reduction
Structure (SMILES): C[C@H](C(=O)Nc1cccc(C[C@H](N)C(=O)O)c1)c1cccc(C(=O)c2ccccc2)c1 [Compound 2]
Effect on cell viability [1, 4]: started to impact the cell viability
LAT1 expression on the plasma membrane [3]: downregulated LAT1 expression

Structure (SMILES): COc1ccc2cc([C@H](C)C(=O)Oc3cccc(C[C@H](N)C(=O)O)c3)ccc2c1 [Compound 15]
Effect on cell viability ([1]; 50 µM): minor effects on cell viability
Effect on cell viability [1, 4]: started to impact the cell viability

Brain 3,4-dihydroxyphenylacetic acid levels [2]: Not detected at all
Structure (SMILES): N[C@@H](Cc1cccc(NC(=O)c2ccccc2O)c1)C(=O)O [Compound 8]
LAT1 expression on the plasma membrane [3]: did not have any effect on LAT1 expression

Structure (SMILES): C[C@H](C(=O)Oc1cccc(C[C@H](N)C(=O)O)c1)c1cccc(C(=O)c2ccccc2)c1 [Compound 4]
Effect on cell viability [1, 4]: started to impact the cell viability

Structure (SMILES): C[C@H](C(=O)Oc1cccc(C[C@H](N)C(=O)O)c1)c1ccc(-c2ccccc2)c(F)c1 [Compound 12]
Effect on cell viability ([1]; 50 µM): minor effects on cell viability
Effect on cell viability [1, 4]: started to impact the cell viability
LAT1 expression on the plasma membrane [3]: did not have any effect on LAT1 expression

Structure (SMILES): COc1cc(C=CC(=O)NCc2cccc(CC(N)C(=O)O)c2)ccc1O (stereo not shown) [Compound 5]
LAT1 expression on the plasma membrane [3]: downregulated LAT1 expression
